Our source for the T m values is publication PMC13213488, “Small Molecule Activators of Protein Phosphatase 2A Exert Global Stabilizing Effects on the Scaffold PR65” (JACS Au, 2026).

The assay has as its target T1, PR65 (Homo sapiens, UniProt P30153).
T1 construct: gene PPP2R1A; WT PR65 alone (scaffold, 15 HEAT repeats, no B or C subunit), expressed in E. coli C41 as GST fusion, GST tag cleaved with thrombin; also a variant with ybbR tags at N- and C-termini used for optical tweezers
Briefly: nanoDSF thermal shift. It is filed as binding. As to conditions: melting temperature with ligand, not a shift (apo 52.7 ± 0.1 °C); 2 μM PR65, 100 μM ligand, PBS, 2 mM DTT, 10% DMSO. (In general: In DSF a fluorescence change marks the thermal transition of the protein.)

T1 sequence (P30153 2-589): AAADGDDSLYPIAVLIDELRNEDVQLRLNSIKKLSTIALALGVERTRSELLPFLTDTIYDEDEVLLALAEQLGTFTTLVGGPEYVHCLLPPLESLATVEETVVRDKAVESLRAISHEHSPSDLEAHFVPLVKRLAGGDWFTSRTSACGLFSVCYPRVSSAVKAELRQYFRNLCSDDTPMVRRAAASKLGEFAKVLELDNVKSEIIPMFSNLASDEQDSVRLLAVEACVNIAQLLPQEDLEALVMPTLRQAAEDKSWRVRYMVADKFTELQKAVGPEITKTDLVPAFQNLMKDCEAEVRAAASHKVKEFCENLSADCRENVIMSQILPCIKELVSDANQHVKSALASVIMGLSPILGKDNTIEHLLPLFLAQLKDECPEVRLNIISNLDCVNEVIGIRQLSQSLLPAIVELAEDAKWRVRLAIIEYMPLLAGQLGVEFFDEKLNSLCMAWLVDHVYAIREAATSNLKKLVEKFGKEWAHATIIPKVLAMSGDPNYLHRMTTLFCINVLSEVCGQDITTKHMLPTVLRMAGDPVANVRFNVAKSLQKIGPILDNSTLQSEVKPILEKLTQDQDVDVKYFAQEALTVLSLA

Regarding DBK-766, the T m stood at 53.5 ± 0.1 °C.
